Assay results as given in patent US7432302B2, “Composition containing polyamine transport inhibitor and use thereof” (MediQuest Therapeutics, Inc., priority 2001, dated 2008).
Read-outs that look alike come from different tables or passages of the source.

What was measured:
[1] = test system: cell growth in the presence of DFMO; assay: Growth inhibition assay in combination with DFMO; format: cell-based; conditions: 144 h; also: 0.5 µM SPD
Experimental: Medias were obtained from Mediatech, Inc. (Hemdon, Va.) and serums from Gibco BRL (Gaithersburg, Md.). 50 U/ml penicillin, 50 μg/ml streptomycin and 2 mM L-glutamine (all from Bio Whittaker, Walkersville, Md.) were included in all cultures. […] When cells were cultured with polyamines or ORI compounds, 1 mM aminoguanidine (AG; Sigma) was included to inhibit serum amine oxidase activity.

[2] = test system: epidermal ornithine decarboxylase activity; conditions: topical application of 20 μmole 2 hr after the TPA treatment; cited from earlier work
[3] = target: T1, ornithine decarboxylase (ODC) (Homo sapiens, UniProt P11926); conditions: reversible / cofactor-interaction ODC inhibitors, literature; cited from earlier work
T1 sequence (P11926 1-461): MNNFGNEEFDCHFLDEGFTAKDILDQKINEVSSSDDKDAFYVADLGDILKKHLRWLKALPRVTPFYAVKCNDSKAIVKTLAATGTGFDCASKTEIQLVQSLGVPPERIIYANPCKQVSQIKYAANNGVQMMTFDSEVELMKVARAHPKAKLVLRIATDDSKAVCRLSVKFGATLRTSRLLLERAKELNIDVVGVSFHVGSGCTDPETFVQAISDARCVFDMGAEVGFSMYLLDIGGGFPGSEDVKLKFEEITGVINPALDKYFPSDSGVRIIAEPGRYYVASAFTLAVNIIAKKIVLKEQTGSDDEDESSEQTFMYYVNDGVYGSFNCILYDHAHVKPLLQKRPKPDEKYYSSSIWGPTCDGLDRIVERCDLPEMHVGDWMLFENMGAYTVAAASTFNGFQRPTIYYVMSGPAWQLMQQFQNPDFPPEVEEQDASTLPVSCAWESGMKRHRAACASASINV

spermidine synthase = target: T2, spermidine synthase (Homo sapiens, UniProt P19623); conditions: cited from earlier work
T2 sequence (P19623 1-302): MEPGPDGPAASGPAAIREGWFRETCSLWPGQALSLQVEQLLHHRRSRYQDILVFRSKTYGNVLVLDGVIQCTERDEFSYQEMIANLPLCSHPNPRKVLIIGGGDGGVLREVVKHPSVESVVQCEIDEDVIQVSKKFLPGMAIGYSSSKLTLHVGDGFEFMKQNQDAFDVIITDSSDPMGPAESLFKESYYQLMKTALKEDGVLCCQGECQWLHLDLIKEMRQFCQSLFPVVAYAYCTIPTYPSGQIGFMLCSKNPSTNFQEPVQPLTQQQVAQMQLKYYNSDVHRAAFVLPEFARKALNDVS

hair regrowth = assay: Animal hair growth inhibition assay; format: in vivo, mice
cultured follicles = conditions: cited from earlier work
fiber growth = conditions: sheep treated systemically; cited from earlier work
L1210 leukemia cells = conditions: cited from earlier work
[4] = test system: cell growth when given with DFMO; assay: EC50 determined as disclosed in Weeks et al. (cell growth when given with DFMO); format: cell-based; conditions: determined as in Weeks et al. Exp Cell Res. 2000
cultured hair follicles = conditions: 50 μM polyamine added to MGBG (10 mM) treated cultured hair follicles; cited from earlier work
[5] = no additional biosynthesis inhibitor (None, or antizyme inducer; agmatine 2%), once a day for 18 days
[6] = mutant L1210 cells with greatly reduced polyamine transport activity
[7] = compound with DFMO at 2%, 70% ethanol, pH 7.0, applied once a day for 18 days

## CC(C)CC(C)NCCCCC(N)C(=O)NCCCNCCCCNCCCN (single isomer, unassigned) [VA21]
[1]; read-out: Ave EC50 Value
  EC50: 0.65 µM
[1]; read-out: Ave EC50 value
  EC50: 0.65 µM

## NCCCCCCCN [1,7-diaminoheptane]
[2]
  inhibition of the induction of ODC activity: 90%

## CC(N)CCON (stereo not shown) [1-Aminooxy-3-aminobutane]
[3]
  Ki: 0.0028 µM

## NCCCON [1-Aminooxy-3-aminopropane]
[3]
  Ki: 0.0032 µM

## CCCCCN [1-pentylamine]
Spermidine synthase; read-out: IC50
  IC50: 3.6 µM

## C=CCCCN [5-amino-1-pentene]
Spermidine synthase
  IC50: respectable activity

## N=C(N)NCCCCN [Agmatine, reference compound]
Hair regrowth; [5]
  % HGI: 30%

## CCCCN [Compound 1-butylamine, 1-butylamine]
Spermidine synthase
  Ki: 0.52 µM
Spermidine synthase; read-out: IC50
  IC50: 3.8 µM

## NCCC[C@](N)(C(=O)O)C(F)F [DFMO, α-difluoromethylornithine]
Hair regrowth; biosynthesis inhibitor alone, compound None (DFMO at 2%; Vaniqua 13.9% DFMO)
  % HGI: 28%
Cultured follicles; in culture media: DFMO 500 μM, N-butyl-1,3-diaminopropane 50 μM
  effect on the growth of cultured follicles: no effect
Fiber growth
  fiber diameter increase: 14%
  fiber growth decline: 10%
L1210 leukemia cells; [6]
  increase in median survival time: 87%
  mice cured: 13 of 40
L1210 leukemia cells; parental L1210 cell line
  increase in median survival time: 22%

## CCCCCCCCCCCCCCCCCC(=O)NCCCC[C@@H](N)C(=O)NCCCNCCCCNCCCN [IB2]
[1]; read-out: Ave EC50 value
  EC50: 0.083 µM

## CCCCCCCCCCCCCCCC(=O)NCCCC[C@@H](N)C(=O)NCCCNCCCCNCCCN [IB4]
[1]; read-out: Ave EC50 value
  EC50: 0.084 µM

## CCCCCCCCC(=O)NCCCC[C@@H](N)C(=O)NCCCNCCCCNCCCN [IB6]
[1]; read-out: Ave EC50 value
  EC50: 2.2 µM

## CCCCCCCC(=O)NCCCC[C@@H](N)C(=O)NCCCNCCCCNCCCN [IB7]
[1]; read-out: Ave EC50 value
  EC50: 13 µM

## CCCCCCC(=O)NCCCC[C@@H](N)C(=O)NCCCNCCCCNCCCN [IB8]
[1]; read-out: Ave EC50 value
  EC50: 3.5 µM

## CCCCCC(=O)NCCCC[C@@H](N)C(=O)NCCCNCCCCNCCCN [IB9]
[1]; read-out: Ave EC50 value
  EC50: 12 µM

## NCCCNCCCCNCCCNC(=O)[C@H](N)CCCCNC(=O)c1ccccc1 [IB24]
[1]; read-out: Ave EC50 value
  EC50: 30 µM

## NCCCNCCCCNCCCNC(=O)[C@H](N)CCCCNC(=O)c1ccco1 [IB25]
[1]; read-out: Ave EC50 value
  EC50: 10 µM

## NCCCNCCCCNCCCNC(=O)[C@H](N)CCCCNC(=O)c1ccc(-c2ccccc2)cc1 [IB26]
[1]; read-out: Ave EC50 value
  EC50: 1.1 µM

## NCCCNCCCCNCCCNC(=O)[C@H](N)CCCCNC(=O)C(c1ccccc1)c1ccccc1 [IB29]
[1]; read-out: Ave EC50 value
  EC50: 2.1 µM

## NCCCNCCCCNCCCNC(=O)[C@H](N)CCCCNC(=O)C12CC3CC(CC(C3)C1)C2 [IB30]
[1]; read-out: Ave EC50 value
  EC50: 2 µM

## CC(C)C(=O)NCCCC[C@@H](N)C(=O)NCCCNCCCCNCCCN [IB33]
[1]; read-out: Ave EC50 value
  EC50: 8.4 µM

## CC(C)(C)C(=O)NCCCC[C@@H](N)C(=O)NCCCNCCCCNCCCN [IB34]
[1]; read-out: Ave EC50 value
  EC50: 8.5 µM

## CC(C)(C)CC(=O)NCCCC[C@@H](N)C(=O)NCCCNCCCCNCCCN [IB36]
[1]; read-out: Ave EC50 value
  EC50: 27 µM

## NCCCNCCCCNCCCNC(=O)[C@H](N)CCCCNC(=O)CC1CC2CCC1C2 (stereo partly shown) [IB37]
[1]; read-out: Ave EC50 value
  EC50: 41 µM

## CC(C)[C@@H]1CC[C@@H](C)C[C@H]1OCC(=O)NCCCC[C@@H](N)C(=O)NCCCNCCCCNCCCN [IB38]
[1]; read-out: Ave EC50 value
  EC50: 13 µM

## CCCCNCCCC[C@@H](N)C(=O)NCCCNCCCCNCCCN [IVB3]
[1]; read-out: Ave EC50 Value
  EC50: 2.19 µM

## CCCCCCNCCCC[C@@H](N)C(=O)NCCCNCCCCNCCCN [IVB5]
[1]; read-out: Ave EC50 Value
  EC50: 0.71 µM

## CCCCCCCNCCCC[C@@H](N)C(=O)NCCCNCCCCNCCCN [IVB6]
[1]; read-out: Ave EC50 Value
  EC50: 0.89 µM

## CC(C)CCNCCCC[C@@H](N)C(=O)NCCCNCCCCNCCCN [IVB21]
[1]; read-out: Ave EC50 Value
  EC50: 1.32 µM

## CC(C)(C)CCNCCCC[C@@H](N)C(=O)NCCCNCCCCNCCCN [IVB22]
[1]; read-out: Ave EC50 Value
  EC50: 0.68 µM

## CC(C)CNCCCC[C@@H](N)C(=O)NCCCNCCCCNCCCN [IVB23]
[1]; read-out: Ave EC50 Value
  EC50: 1.79 µM

## CC(C)(C)CNCCCC[C@@H](N)C(=O)NCCCNCCCCNCCCN [IVB24]
[1]; read-out: Ave EC50 Value
  EC50: 1.32 µM

## NCCCNCCCCNCCCNC(=O)[C@H](N)CCCCNCC1CC2C=CC1C2 (stereo partly shown) [IVB25]
[1]; read-out: Ave EC50 Value
  EC50: 0.89 µM

## NCCCNCCCCNCCCNC(=O)[C@H](N)CCCCNCC1CCCCC1 [IVB27]
[1]; read-out: Ave EC50 Value
  EC50: 0.61 µM

## CC(C)=CCC[C@H](C)CCNCCCC[C@@H](N)C(=O)NCCCNCCCCNCCCN [IVB28]
[1]; read-out: Ave EC50 Value
  EC50: 12.8 µM

## NCCCNCCCCNCCCNC(=O)[C@H](N)CCCCNCc1ccc(-c2ccccc2)cc1 [IVB33]
[1]; read-out: Ave EC50 Value
  EC50: 1.38 µM

## CC(/C=N/NC(=N)N)=N\NC(=N)N [MGBG, methylglycoxal bis(guanylhydrazone)]
Cultured follicles
  ED50, inhibition of the growth of cultured follicles: ~5 µM

## CCCCCCCCCCCCCCCC(=O)NCCCC[C@H](N)C(=O)NCCCNCCCCNCCCN [MQT 2]
Hair regrowth; [7]
  % HGI: 97%
[4]
  EC50: 0.044 µM

## NCCCNCCCCNCCCNC(=O)[C@@H](N)CCCCNCC1CCCCC1 [MQT 3]
Hair regrowth; compound with BHT 0.5%, 70% ethanol, pH 7.0, once a day for 18 days
  % HGI: 68%
Hair regrowth; [7]
  % HGI: 93%
[4]
  EC50: 0.78 µM

## CC(C)(C)CCNCCCC[C@H](N)C(=O)NCCCNCCCCNCCCN [MQT 4]
Hair regrowth; [7]
  % HGI: 63%
Hair regrowth; [5]
  % HGI: 66%
[4]
  EC50: 1.6 µM

## CCCCCCCC(=O)NCCCC[C@H](N)C(=O)NCCCNCCCCNCCCN [MQT 5]
Hair regrowth; [7]
  % HGI: 47%
[4]
  EC50: 2.2 µM

## CCCCCCCNCCCC[C@H](N)C(=O)NCCCNCCCCNCCCN [MQT 6]
Hair regrowth; [7]
  % HGI: 79%
[4]
  EC50: 0.38 µM

## NCCCCCCNCCCCCCNCc1ccc(CNCCCN)cc1 [MQT 7]
Hair regrowth; [5]
  % HGI: 94%

## NCCCCCCNCCCCCNCCN [MQT 8]
Hair regrowth; [5]
  % HGI: 53%

## CCCC(CCC)NCCCC[C@H](N)C(=O)NCCCNCCCCNCCCN [VA26]
[1]; read-out: Ave EC50 Value
  EC50: 4.14 µM

## CC(C)[C@@H]1CC[C@@H](C)CC1NCCCC[C@@H](N)C(=O)NCCCNCCCCNCCCN (stereo partly shown) [VB28]
[1]; read-out: Ave EC50 Value
  EC50: 1.45 µM

## NC1CCCCC1 [cyclohexylamine]
Spermidine synthase; read-out: IC50
  IC50: 8.1 µM

## NC1CC2CCC1C2 (stereo not drawn) [exo-2-aminonorbornane]
Spermidine synthase; read-out: IC50
  IC50: 5.5 µM

## NCCCCN [putrescine]
[2]
  inhibition of the induction of ODC activity: 50%

## NCCCCNCCCN [spermidine]
Cultured hair follicles
  recovery of DNA synthesis: Complete recovery of DNA synthesis
[2]
  inhibition of the induction of ODC activity: 90%

## NCCCNCCCCNCCCN [spermine]
Cultured hair follicles
  recovery of DNA synthesis: did not overcome the MGBG-mediated inhibition
[2]
  inhibition of the induction of ODC activity: 90%

## NC1CCC(N)(C(=O)O)CC1 (stereo not drawn) [trans-1,4-diaminocyclohexane-1-carboxylic acid]
[3]
  Ki: 70 µM

## NC/C=C/C(N)C(=O)O (stereo not drawn) [trans-3-dehydroornithine]
[3]
  Ki: 4.4 µM

## C[C@H]1CC[C@H](N)CC1 [trans-4-methylcyclohexylamine]
Spermidine synthase; read-out: IC50
  IC50: 1.7 µM

## NCCCC(NN)C(=O)O (stereo not drawn) [α-Hydrazinoornithine]
[3]
  Ki: 0.5 µM

## C[C@](N)(CCCN)C(=O)O [α-methylornithine]
[3]
  Ki: 40 µM
